Data: US10732092B2, “Analysis of single cell mechanical phenotyping for metastatic detection” (University of Maryland, College Park, priority 2015, dated 2020)

Columns and labels:
cells (nucleus) = assay: Brillouin and fluorescence 2D imaging of cells with and without CytoD treatment (setup of FIG. 21); assay type: cell-based; settings: treated vs control group, FIGS. 23a, 23b
Experimental: FIG. 21 illustrates a Brillouin spectroscopy setup according to another embodiment of the current invention. In this embodiment, a second optical modality is added to acquire a co-registered confocal fluorescence image of the cell simultaneously when the cell is probed by the Brillouin beam. The second optical modality may comprise a dichroic mirror 2127, a tube lens 2122, a pinhole mask 2126, and a photo-detector 2125. The dichroic mirror 2127 will let the laser beam 2110 and the Brillouin signal pass through but reflects the fluorescence light. Compared with the bright-field microscope of FIG. 12, the confocal configuration has better transverse and lateral optical resolution by rejecting fluorescence light from the out-of-focus plane. In practice, fluorescently labelled cells can be used to identify a sub-region of a cell (e.g., nucleus) and the focused spot of laser beam 2110 can be used to directly excite fluorescence emission. Then, the confocal configuration is used to detect the fluorescence emission light by a camera 2125. Based on the intensity of the fluorescence emission light, one can accurately determine the location of the focused spot (and thus the Brillouin signal) inside the cell so that the Brillouin signal can be assigned to a targeted point. […]
As an example of classifying cells using the embodiment of FIG. 21, effect of CytoD on the cells was analyzed. […]

adherent cells = assay: Cytoskeletal stiffness of adherent cells treated with CytoD; assay type: cell-based
NIH 3T3 fibroblast cells [1] = assay: Inhibition of actin filament, Brillouin-based label-free flow cytometry; assay type: cell-based; settings: cytoD 2 ug/mL for 10 minutes; 232 treated cells; FIG. 33B
Experimental: (§1) Two drugs, cytochalasin D (cytoD) and nocodazole (Noco), were applied to 3T3 cells to inhibit the actin filament and microtubules filament, respectively. NIH 3T3 fibroblast cells purchased from American Type Culture Collection (ATCC) were used for all experiments. Cells were cultured following standard protocols. For inhibitation of microtubules filament, cells were first treated by Noco of 1 ug/mL for 30 minutes, and then harvested by trypsinization and re-suspended in a solution of phosphate-buffered saline (PBS) without Mg^2+ and Ca^2+ at a concentration of ˜0.1 million cells per ML before measurement. Due to the low concentration, few cells were captured by flowing. Instead, a single cell in suspension was imaged after it was delivered into the microfluidic devices. […] The Brillouin shift of the treated cell 3312 is 0.29 GHz higher, indicating a distinct stiffening of its nucleus. Considering the sensitivity of the instrument is ˜0.01 GHz, microtubules filament-inhibited cells were easily identified from normal cells based on the mechanical stiffening of the nucleus.
For inhibition of actin filament, cells were first treated by cytoD of 2 ug/mL for 10 minutes, and then harvested by trypsinization and re-suspended in a solution of phosphate-buffered saline (PBS) without Mg^2+ and Ca^2+ at a concentration of ˜1 million cells per mL before measurement. […]

NIH 3T3 cell line [2] = assay: Brillouin flow cytometry of CytoD-treated suspended cells (setup of FIG. 12); assay type: cell-based
From the text: FIG. 12 illustrates an exemplary embodiment of the current invention resulting from a novel combination of an epi-detection path to excite/collect Brillouin signal, a monitoring imaging modality, a microfluidic device (or other cell plating device), a Brillouin spectrometer and a computer with software that links all of these sub-components. A first incoming illuminating beam 1210 is focused onto one spot inside a microfluidic device 1230 by using a beam splitter 1211 and an objective lens 1212. The illuminating laser beam 1210 may be a laser beam. In one embodiment, the first incoming laser beam 1210 is focused into spot of 1 to 10 μm. The backward Brillouin scattering light is collected by the same objective lens 1212 and guided to a Brillouin spectrometer 1215 via the beam splitter 1211, a reflected mirror 1213, and a coupling lens 1214. The Brillouin spectrometer 1215 is a device that can measure the Brillouin frequency shift accurately. One example of the Brillouin spectrometer 1215 is disclosed in Scarcelli Polachech 2015 Nature Methods Above the microfluidic device 1230, there is a bright-field microscope consisting of a second light source 1220 (usually has a different wavelength from laser beam 1210), a beam splitter 1221, a tube lens 1222, an objective lens 1224, and a 2D image recording device 1225. The purpose of this microscope setup is to monitor the flowing status of the cells inside the microfluidic device 1230. In one embodiment, the microscope setup further contains a spectral filter 1223, which blocks the light from the laser beam 1210, but allows the light from a light source 1220 to pass. […]
In yet another embodiment, a second approach, named as image-guided alignment, may be used to align the flowing cell to the focused spot of the laser beam 1210. […] Suppose a cell 1630 is flowing along y-direction (from top to bottom), once it appears in the field of view, its location (x1) and the horizontal shift (x0-x1) with respect to the focused spot 1620 can be determined. […] In this case, all of the measured data points were used to plot the histogram graph in FIG. 17a. […]

F-actin = settings: attached cells treated with CytoD; cited from earlier work
NIH 3T3 fibroblast cells [3] = assay: Inhibition of microtubules filament, Brillouin imaging of single suspended cell; assay type: cell-based; settings: Noco 1 ug/mL for 30 minutes; single cell in suspension; FIG. 33A
Experimental: as §1

NIH 3T3 cell line [4] = assay: Chromatin decondensation experiment, Brillouin mechanical cytometry of TSA-treated cells; assay type: cell-based; settings: TSA 100 ng/mL, 2 hours
From the text: A vertically-polarized laser beam 2628 is first reflected by the polarized beam splitter (PBS) 2634 and focused into the center of a microfluidic channel 2624 from the bottom side by objective lens 2632. In one embodiment, a 11-mW single-mode linearly-polarized 532-nm cw laser (Torus, Laser Quantum) was used as a light source to excite Brillouin scattering. Due to the quarter-wave plate (QWP) 2626, the focused beam was circularly polarized. The backward scattered light was collected by the same objective lens 2632 and passed through the QWP 2626 again. The circularly-polarized light is eventually turned into horizontally-polarized one which is totally transmitted by the PBS 2634. […] The location of the focused Brillouin beam was pre-determined by removing the long-pass filter (LP) 2612. […] In one embodiment, a CCD camera 2610 and the Brillouin spectrometer 2638 were synchronized by a LabVIEW program so that the spectrometer's data can be assigned to the corresponding location of the measured sample. […] When a cell passes through the beam location (white dots indicated by the arrows), its Brillouin shift is measured. […]
Cells are cultured and re-suspended in a solution of phosphate-buffered saline (PBS) without Mg2+ and Ca2+. […] Cells without washing are then ready for fluorescence experiment. […]

For `C=C1[C@@H](C)[C@H]2[C@H](Cc3ccccc3)NC(=O)[C@]23[C@H](OC(C)=O)/C=C/[C@@](C)(O)C(=O)[C@@H](C)C/C=C/[C@H]3[C@@H]1O` [CytoD, cytochalasin D], which “nucleus stiffness (Brillouin signal vs fluorescence intensity)” value (cells (nucleus)) is on record?
Its value is “much softened”.

What about the cytoskeletal stiffness (adherent cells) of the same molecule?
Its cytoskeletal stiffness is “markedly reduced”.

And the “decrease of averaged Brillouin shift of the nucleus, treated group vs control group” value (NIH 3T3 fibroblast cells [1])?
Its value is 0.12 GHz.

What about the “Brillouin frequency shift of cytoplasm peaks” value (NIH 3T3 cell line [2]; NIH 3T3, suspended after trypsinization, CytoD 0.5, 2, 5 ug/ml, FIGS. 20b-20e) of the same molecule?
The value was “almost no change”.

What about the “stiffness of the cells (average Brillouin frequency shift over the whole cell)” value (NIH 3T3 cell line [2]; NIH 3T3, suspended in PBS, CytoD 0.5, 2 and 5 ug/ml, FIG. 20a) of the same molecule?
The value was “dose dependent effect”.

And the “Brillouin frequency shift of nucleus peak (nucleus stiffness)” value (NIH 3T3 cell line [2]; NIH 3T3, suspended, increasing dose of CytoD 0.5, 2, 5 ug/ml, FIGS. 20b-20e)?
Its value is “nucleus is getting softer”.

What about the F-actin (F-actin) of the same molecule?
Its F-actin is “dramatically reduced”.

For `COC(=O)Nc1nc2ccc(C(=O)c3cccs3)cc2[nH]1` [Noco, nocodazole], which “increase of averaged Brillouin shift of the nucleus, treated cell vs control” value (NIH 3T3 fibroblast cells [3]) is on record?
Its value is 0.29 GHz.

With `CC(/C=C/C(=O)NO)=C\[C@@H](C)C(=O)c1ccc(N(C)C)cc1` [TSA, trichostatin A] as the molecule, how does the “Brillouin shift of the nucleus after treatment” value (NIH 3T3 cell line [4]; control nucleus 7.80 GHz, 356 treated cells) read?
The value was 7.71 GHz.

And the “Brillouin shift of the cytoplasm after treatment” value (NIH 3T3 cell line [4]; same as control)?
The value was 7.56 GHz.
